Source: article PMC2603313, “Direct Inhibition of GSK3β by the Phosphorylated Cytoplasmic Domain of LRP6 in Wnt/β-Catenin Signaling” (PLoS ONE, 2008)
One block for each molecule: values may come before it. Square brackets hold non-standard residues; d marks the D form. Ends that are not written are not given here. pT = C[C@@H](OP(=O)(O)O)[C@H](N)C(=O)O; pS = N[C@@H](COP(=O)(O)O)C(=O)O

What was measured:
[1] = test system: GSK3β and CK1; assay: Phosphorylation of GST-fusion proteins by GSK3β and CK1; type: biochemical; settings: data not shown
[2] = target: catalytic domain of mouse GSK3β (residues 27–393) (mouse) (UniProt Q9WV60)
[3] = target: GSK3β catalytic domain, 27-393 (UniProt Q9WV60); assay: inhibition of GSK3β kinase activity, band shift; settings: reference: non-phosphorylated peptide …; sites S1490
[4] = target: T1, GSK3β (Mus musculus, UniProt Q9WV60); assay: In vitro GSK3β activity assay with synthetic peptides (phosphorylation of primed β-catenin N-terminal fragment); type: biochemical; settings: primed β-catenin N-terminal fragment 7 µM, 1 mM ATP, pH 8.0, 30 min at 37°C, 4–7 independent experiments
T1 construct: The catalytic domains of mouse GSK3β (residues 27–393) and CK1ε (residues 1–319) were expressed and purified; made in house
Description: We synthesized one dually-phosphorylated (NPPPpSPApTERSH, where pS or pT designates a phosphorylated Ser or Thr residue), two singly-phosphorylated (NPPPSPApTERSH and NPPPp[…]) and one non-phosphorylated ([…]) peptides derived from the first PPPSPxS motif of LRP6 (Fig. 1A). To measure the GSK3β activity toward β-catenin in vitro, we utilized a β-catenin N-terminal fragment (residues 1–133), whose Ser45 was prephosphorylated by CK1, as a substrate (Ha et al., 2004). Each synthetic peptide was added to a reaction mixture containing the purified GSK3β enzyme and the substrate β-catenin N-terminal fragment. The GSK3β activity was determined through measurement of the intensity of the supershifted (retarded) β-catenin bands (Fig. S3), which represent the phosphorylated product species (Fig. S4), on an SDS-polyacrylamide gel (Figs. S3, S4, S5, S6, S7). […] This corresponds well with the results of Zeng et al., who reported that the first Ser residue in the PPPSPxS motif has a more important role in Wnt/β-catenin signaling than the second Ser residue.
The catalytic domains of mouse GSK3β (residues 27–393) and CK1ε (residues 1–319) were expressed and purified as previously described. The N-terminal region (residues 1–133) of β-catenin was expressed in Escherichia coli as a GST-fusion protein with a TEV protease cleavage site and then purified using Glutathione-agarose. Subsequently, the GST tag was cleaved using recombinant TEV protease and was removed by repeated HiTrapQ anion-exchange chromatography. The N-terminal region of β-catenin was then phosphorylated by incubation with the catalytic domain of CK1ε (0.28 mg/ml) at 37°C for 20 min in 50 mM Tris buffer (pH 8.0) containing 10 mM MgCl2, 10 mM 2-mercaptoethanol, and 2 mM phenylmethylsulfonylfluoride. The phosphorylated β-catenin fragment was then further purified using HiTrapQ anion-exchange chromatography to remove the CK1ε enzyme. […]

[5] = test system: Xenopus embryos; assay: Microinjection into Xenopus embryos, second body axis formation; type: in vivo, Xenopus laevis; settings: peptide 1 ng co-injected with XWnt8 0.5 pg
Description: It is well established that Wnt signaling reduces GSK3β activity during development of the Xenopus embryo [24], and that the suppressed activity of GSK3β induces a second body axis in the Xenopus embryo in the response to Wnt. To examine the in vivo effect of the PPPSPxS motif on Wnt/β-catenin signaling, we injected the synthetic peptides into Xenopus embryos, along with a small amount of Xenopus Wnt8 that is insufficient to induce second body axis formation on its own. […] It is likely that a slight reduction in the GSK3β activity due to the activity of the exogenous Wnt on the endogenous LRP6/5 is required for the peptide to cause a sufficient inhibition of GSK3β to trigger Wnt/β-catenin signaling. Moreover, even if the amount of peptide injected is well above physiological concentrations, the effect is specific to the phosphorylated peptide.
Figure 3 The effect of the injected PPPSPxS peptides to the Xenopus embryos. Xenopus Wnt8 protein (XWnt8; 0.5 pg) was co-microinjected with each peptide (1 ng) into the ventrovegetal region of Xenopus embryos. […]
Xenopus laevis was purchased from Xenopus I and Nasco. […] In vitro fertilization was performed as described previously, and the developmental stages of the embryos were determined according to Nieuwkoop and Faber. […]

[6] = test system: GSK3β; settings: toward full-length β-catenin; cited from earlier work
Experimental: We next sought to determine if the phosphorylated LRP6 motifs are capable of inhibiting GSK3β in the Axin complex. An in vitro kinase assay with Axin-bound GSK3β was performed by adding the purified GSK3β binding domain (GBD) of Axin to the reaction mixture.

[7] = target: T2, catalytic domain of mouse GSK3β (residues 27–393) (mouse, UniProt Q9WV60 27-393); assay: steady-state kinetics of enzyme inhibition (GSK3β kinase assay, band shift on SDS-PAGE); apparent Ki; 50 mM Tris pH 8.0, 10 mM MgCl2, 10 mM 2-mercaptoethanol, 1 mM ATP, 8 ng GSK3β catalytic domain, 6 µM primed β-catenin N-terminal fragment (1-133), 37°C; peptide 0, 1, 3, 10, 30 µM; (V0/Vi)−1 = [peptide]/Ki; settings: both partners purified
T2 construct: GSK3β (glycogen synthase kinase 3 beta), mouse, catalytic domain, residues 27-393; also called recombinant GSK3β catalytic domain; source: recombinant, expressed and purified as previously described [32]

[8] = target: T2, catalytic domain of mouse GSK3β …; assay: far-Western, overlay or dot blot; 15 µg GST-miniCL on PVDF; membrane incubated with GSK3β (2 µg/ml) and/or His-Axin (12 µg/ml) in TBST containing 1% skim milk; settings: both partners purified

Molecule: GST-PPPAPxS: GST-fused LRP6 PPPAPxS, residues 1485–1497 with the substitution at Ser1490 (LNPPPAPATERSH; also: GST-fused, end not given here)
Phosphorylation by GSK3β and CK1 [1]: not phosphorylated

Molecule: GST-PPPSPxS: GST-fused LRP6 PPPSPxS, residues 1485–1497 (LNPPPSPATERSH; also: GST-fused, end not given here)
Phosphorylation by GSK3β and CK1 [1]: not phosphorylated

inhibition of in vitro GSK3β activity at above 2.5 µM of GST-Axin GBD [2]: 20%
Molecule: GST-fused mouse Axin GBD (GSK3β binding domain, residues 512–530) (domain or fragment)

binding against the reference [3]: gained
Molecule: LRP6 (from UniProt O75581) pS1490 peptide NPPPpSPATERSH

Molecule: NPPPSPATERSH [PPPSPxS, non-phosphorylated peptide derived from the first PPPSPxS motif of LRP6]
Inhibitory effect on GSK3β activity toward β-catenin ([4]; at concentrations up to 100 µM): did not show any inhibitory effect on the GSK3β activity
Induction of second body axis [5]: did not

Molecule: NPPPpSPATERSH [PPP(p)SPxS, singly-phosphorylated peptide (first Ser/Thr) derived from the first PPPSPxS motif of LRP6]
Inhibitory effect on GSK3β activity toward β-catenin ([4]; at 100 µM): strong inhibitory effect close to that of the dually-phosphorylated peptide
Induction of second body axis [5]: induced the second body axis with an efficiency comparable to that of the dually-phosphorylated peptide

Molecule: full-length Axin: full-length Axin scaffold protein
Effect on GSK3β activity [6]: increases GSK3β activity

Ki [7]: 13 µM
B1: dually-phosphorylated LRP6 PPPSPxS peptide (NPPPpSPApTERSH) (peptide)
peptide: {biotin (sulfo-NHS-SS-biotin)}-NPPP[pS]PA[pT]ERSH-NH2
notes: LRP6, first PPPSPxS motif; The biotin is joined by a disulfide that can be cut by reduction; the kinase buffer holds 10 mM 2-mercaptoethanol; also called PPP(p)SPx(p)S; dually-phosphorylated peptide; source: synthetic peptide (solid-phase synthesis)

binding result [8]: binds
B2: GST-fused LRP6 miniCL (residues 1470–1510 of human LRP6), not phosphorylated (domain or fragment, UniProt O75581 1470-1510, looked up)
chain: SSSSSSTKGTYFPAILNPPPSPATERSHYTMEFGYSSNSPS
modifications: also: GST fusion (GST left off)
notes: LRP6, human, intracellular fragment miniCL, residues 1470-1510 (Ser/Thr rich cluster and first PPPSPxS motif); also called GST-miniCL; LRP6 miniCL region; source: E. coli, purified (Glutathione-agarose, HiTrapQ)
